# From patent US11839207B1, “Essential oil-containing formulation for insecticide use, fertilizer application, and/or fertilizer coating” (priority 2019, dated 2023)
# Key:
# Assay type in all cases: in vivo
# mosquitoes = assay: Field repellency test, human landing catch (HLC) method; conditions: relative protection percentages shown in the FIGURE
# Protocol: Additional testing was conducted comparing the inventive formulation to DEET for the purposes of comparing insect repellency. In many insect repellency studies, there is often a lack of side-by-side comparisons for two or more insect repellents. The study conducted in connection with the inventive formulation sought to address this problem by directly comparing the two insect repellents based on the same active contents, i.e., 15% by weight. The study was conducted using both field testing and laboratory conditions. […] Under laboratory conditions, the efficacy of mosquito repellents is typically evaluated in the so-called “arm-in-cage” (AIC) test. […] In the field, similar endpoints may be determined on the basis of mosquitoes landing or biting on an exposed skin area, usually the lower leg, while the mosquitoes are collected by aspiration allowing for the identification of the mosquito species in a laboratory. […] The application volume was estimated on the basis of the surface area, calculated as the average of the circumferences just below the knee, the calf and the ankle, multiplied by the length of the lower leg, measured from below the knee to the ankle. […] Raw data was recorded on paper forms. […] The endpoint measured in the experiments was the number of mosquitoes landing on the bare skin during each exposure period. […]
# Anopheles = assay: Arm-in-cage (AIC) repellency test, Anopheles; conditions: 1 ml per 600 cm^2 on forearm
# Protocol: (§1) Additional testing was conducted comparing the inventive formulation to DEET for the purposes of comparing insect repellency. In many insect repellency studies, there is often a lack of side-by-side comparisons for two or more insect repellents. The study conducted in connection with the inventive formulation sought to address this problem by directly comparing the two insect repellents based on the same active contents, i.e., 15% by weight. The study was conducted using both field testing and laboratory conditions. The tested formulation included ethanolic solutions of 15% DEET (m/m) and 15% of the inventive formulation, and the composition tested corresponded to the target composition described above. […] Under laboratory conditions, the efficacy of mosquito repellents is typically evaluated in the so-called “arm-in-cage” (AIC) test. […] In the field, similar endpoints may be determined on the basis of mosquitoes landing or biting on an exposed skin area, usually the lower leg, while the mosquitoes are collected by aspiration allowing for the identification of the mosquito species in a laboratory. […] In the AIC test the protection time of a repellent is assessed by exposing a treated forearm to hungry mosquitoes at regular intervals (grown from larvae and not fed for 12 hours before the test). The cages measured 16″×16″×14″ and were made of clear glass with an opening on the front side. […]
# Culex = assay: Arm-in-cage (AIC) repellency test, Culex; conditions: 1 ml per 600 cm^2 on forearm
# Protocol: as §1
# Aedes = assay: Arm-in-cage (AIC) repellency test, Aedes; conditions: 1 ml per 600 cm^2 on forearm
# Protocol: as §1
compound,measurement,setting,value
"CCN(CC)C(=O)c1cccc(C)c1 [15% DEET, DEET]",efficacy in comparative study between AIC test and HLC method in the field,mosquitoes,comparable efficacy
same,median CPT (complete protection time) in the AIC tests,Anopheles,2 h
same,median CPT (complete protection time) in the AIC tests,Culex,2 h
same,median CPT (complete protection time) in the AIC tests,Aedes,0.5 h
